Among the data in patent US12195482B1 (Arcus Biosciences, Inc., priority 2022, dated 2025) are IC50 values, retold here.

Broadly, the IC50 is the midpoint of a concentration-inhibition curve. Low readings indicate inhibition by little substance, high ones a need for much substance.

The target in test [1] is T1, p-AXL (Homo sapiens, UniProt P30530).
T1 construct: expressed in transfected cells; host or cells: HEK293T
T1 sequence (P30530 26-894): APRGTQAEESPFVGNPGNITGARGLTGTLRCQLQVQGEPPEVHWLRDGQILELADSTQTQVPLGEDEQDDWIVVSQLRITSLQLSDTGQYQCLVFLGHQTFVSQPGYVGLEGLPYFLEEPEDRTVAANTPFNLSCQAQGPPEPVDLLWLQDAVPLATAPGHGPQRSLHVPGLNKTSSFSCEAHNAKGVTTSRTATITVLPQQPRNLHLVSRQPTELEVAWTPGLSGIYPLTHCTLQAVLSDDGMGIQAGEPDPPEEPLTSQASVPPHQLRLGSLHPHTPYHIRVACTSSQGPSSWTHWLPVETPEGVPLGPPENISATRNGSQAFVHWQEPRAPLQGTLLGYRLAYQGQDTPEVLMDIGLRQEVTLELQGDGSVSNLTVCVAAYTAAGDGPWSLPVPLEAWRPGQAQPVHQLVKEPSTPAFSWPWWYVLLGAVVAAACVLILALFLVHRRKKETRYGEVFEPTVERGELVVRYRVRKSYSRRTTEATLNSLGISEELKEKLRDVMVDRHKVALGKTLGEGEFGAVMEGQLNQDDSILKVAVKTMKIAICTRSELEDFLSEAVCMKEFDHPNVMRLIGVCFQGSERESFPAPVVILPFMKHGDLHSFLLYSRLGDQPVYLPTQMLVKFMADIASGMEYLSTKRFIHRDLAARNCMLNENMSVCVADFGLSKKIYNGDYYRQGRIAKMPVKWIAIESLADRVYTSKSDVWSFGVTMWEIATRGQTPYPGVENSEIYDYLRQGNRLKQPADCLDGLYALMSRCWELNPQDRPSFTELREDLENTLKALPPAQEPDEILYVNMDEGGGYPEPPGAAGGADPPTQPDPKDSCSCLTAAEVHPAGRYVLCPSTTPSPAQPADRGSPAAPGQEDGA
Kind of test: Axl phosphorylation inhibition ELISA in HEK293T cells transfected with NanoLuc-tagged AXL. It is filed as cell-based. Particulars: 1 h compound incubation, media (OptiMEM). On the procedure:
[formula] Measurement of Axl Phosphorylation Inhibition
The dose-response assays were performed in S-Bio PrimeSurface® 3D culture: Ultra-low Attachment Plates: 384 well, U bottom (#MS-9384UZ) containing 400 nL of 22 serial 2-fold compound dilutions using Bravo and Echo. ELISA assay was performed on Pierce™ streptavidin coated high capacity 384-well white plates (Thermofisher Cat #15505). The plates were coated overnight at 4° C. with 50 μl/well of biotinlyated phospho-tyrosine mouse mAb (Cell Signaling Technology, 9417s).
HEK293T cells were grown in DMEM containing 10% FBS, 1% Pen/Strep, 1% G-Max. A day before the assay, cells were transiently transfected with 6.8 μg of NanoLuc-tagged AXL plasmid DNA and 8 μg of carrier DNA using FuGENE® HD Transfection Reagent (Promega) according to manufacturer's instructions. On the day of the assay, transfected cells were harvested and resuspended in OptiMEM. 70,000 cells/well were added to the compounds containing assay plates. After a gentle mix and a short spin, the plates were incubated at 37° C. After 1 h, the cells were lysed followed by a brief centrifugation and 30 min of shaking at 300 rpm. Meanwhile, the antibody coated plates were brought to room temperature and then were washed ten times in PBS with 0.05% Tween 20 (ELISA-wash buffer). 50 μl/well of cell lysate was transferred to the ELISA plates and shaken for 2 hours. After washing again with the ELISA wash buffer, the samples were diluted with 25 μl of PBS. The captured NanoLuc tagged p-AXL was detected using Nano-Glo® Luciferase Assay System (Promega) and manufacturer's instruction. The luminescence signal was measured using Envision plate reader. IC50 values were determined by fitting the data to a standard 4-parameter logistic equation.

In test [2] the target is T2, Axl (Homo sapiens, UniProt P30530).
T2 sequence (P30530 26-894): T1 sequence (P30530 26-894)
Kind of test: Biochemical potency, HTRF KinEASE-TK kinase assay. Set-up: purchased Invitrogen. Particulars: 5 nM AXL, 700 μM ATP. On the procedure:
Measurement of Biochemical Compound Potency of Axl Inhibitors
Purified recombinant human AXL, TYRO3 and MER proteins were purchased from Invitrogen™. 10 nM AXL, 2 nM TYRO3 or MER were incubated with varying concentrations of compounds in 50 mM HEPES, pH 7.4, 10 mM MgCl2, 0.01% BSA, 1 mM DTT and 2% DMSO in a total volume of 20 μl in a 384-well microplate (Corning™ #3640) at RT for 1 h. The AXL, TYRO3 and MER enzymatic reaction was initiated by transferring 10 μl of enzyme and compound mixture into 10 μl of 1.6 μM TK Substrate-biotin (HTRF® KinEASE-TK kit, Cisbio) and 1400 μM ATP pre-incubated in 50 mM HEPES, pH 7.4, 10 mM MgCl2, 0.01% BSA, 1 mM DTT in a 384-well microplate (Corning™ #3640) at RT, giving the final reaction conditions: 5 nM AXL, 1 nM TYRO3 or MER, 800 nM TK Substrate-biotin and 700 μM ATP in 50 mM HEPES, pH 7.4, 10 mM MgCl2, 0.01% BSA, 1 mM DTT and 1% DMSO with varying concentrations of compounds. Following 2 h incubation at RT, the AXL, TYRO3 and MER enzymatic reaction was stopped by transfer of 10 μl of reaction into 10 μl of detection mix (400 nM Streptavidin-XL665, 200-fold dilution TK Antibody-Cryptate and detection buffer, HTRF® KinEASE-TK kit, Cisbio) in a white 384-well microplate (Perkin Elmer, OptiPlate 384). After 1 h incubation at RT, the plate was put into a plate reader (Evision) to read at 665/620 nm (acceptor/donor) for HTRF. The value of the DMSO blank (MIN inhibition=100% activity) was used as a negative control. The positive control was established by adding 5 μl of enzyme and DMSO mixture into 10 μl of detection mix followed by addition of 5 μl of TK Substrate-biotin and ATP mixture (MAX inhibition=0% activity). To calculate the percent activity, Equation 1 was used. Ratio665/620 is the value at a given compound concentration: […]

As to `Cc1cccnc1-c1ncc(-c2c[nH]c3ncc(-c4ccc5c(c4)CC[C@@H](N4C6COCC4C6)CC5)cc23)cn1` [Example 38, 6-[(7S)-3-[3-[2-(3-Methylpyridin-2-yl)pyrimidin-5-yl]-1H-pyrrolo[2,3-b]pyridin-5-yl]-6,7,8,9-tetrahydro-5H-benzo[7]annulen-7-yl]-3-oxa-6-azabicyclo[3.1.1]heptane], the IC50 in test [1] and in test [2] was less than 100 nM each time.
As to `Cn1c(-c2ccc(-c3c[nH]c4ncc(-c5ccc6c(c5)CC[C@@H](N5C7COCC5C7)CC6)cc34)cc2)cccc1=O` [Example 39, 1-Methyl-6-[4-[5-[(7S)-7-(3-oxa-6-azabicyclo[3.1.1]heptan-6-yl)-6,7,8,9-tetrahydro-5H-benzo[7]annulen-3-yl]-1H-pyrrolo[2,3-b]pyridin-3-yl]phenyl]pyridin-2-one], the IC50 in test [1] and in test [2] was less than 100 nM each time.
Consider `Cc1cnc(-c2ccc(-c3n[nH]c4ncc(-c5ccc6c(c5)CC[C@@](C)(N5CCC[C@H]5C)CC6)cc34)nc2)c(C)n1` [Example 60, 3,5-Dimethyl-2-(6-{5-[(7S)-7-methyl-7-[(2R)-2-methylpyrrolidin-1-yl]-6,7,8,9-tetrahydro-5H-benzo[7]annulen-2-yl]-1H-pyrazolo[3,4-b]pyridin-3-yl}pyridin-3-yl)pyrazine], for which the results for the IC50 in test [1] and in test [2] were 100 to 1000 nM and less than 100 nM, respectively.
The corresponding values for `Cc1cnc(C)c(-c2ccc(-c3n[nH]c4ncc(-c5ccc6c(c5)CC[C@@](C)(N5CCC[C@H]5C)CC6)cc34)nc2)n1` [Example 61, 2,5-Dimethyl-3-(6-{5-[(7S)-7-methyl-7-[(2R)-2-methylpyrrolidin-1-yl]-6,7,8,9-tetrahydro-5H-benzo[7]annulen-2-yl]-1H-pyrazolo[3,4-b]pyridin-3-yl}pyridin-3-yl)pyrazine] are less than 100 nM and less than 100 nM.
For `Cc1cnc(C)c(-c2ccc(-c3c[nH]c4ncc(-c5ccc6c(c5)CC[C@@H](N5C[C@@H]7C[C@H]5CO7)CC6)cc34)cc2)n1` [Example 62, (1S,4S)-5-[(7S)-2-{3-[4-(3,6-Dimethylpyrazin-2-yl)phenyl]-1H-pyrrolo[2,3-b]pyridin-5-yl}-6,7,8,9-tetrahydro-5H-benzo[7]annulen-7-yl]-2-oxa-5-azabicyclo[2.2.1]heptane], in that order: less than 100 nM and less than 100 nM.
For `COC[C@H]1CCN([C@H]2CCc3ccc(-c4cnc5[nH]cc(-c6ccc(-c7nc(C)cnc7C)cc6)c5c4)cc3CC2)C1` [Example 63, 3-(4-{5-[(7S)-7-[(3S)-3-(Methoxymethyl)pyrrolidin-1-yl]-6,7,8,9-tetrahydro-5H-benzo[7]annulen-2-yl]-1H-pyrrolo[2,3-b]pyridin-3-yl}phenyl)-2,5-dimethylpyrazine], in that order: less than 100 nM and less than 100 nM.
As for `Cc1cnc(C)c(-c2ccc(-c3n[nH]c4ncc(-c5ccc6c(c5)CC[C@@](C)(N5CCC[C@H]5C)CC6)cc34)cc2)n1` [Example 64, 2,5-Dimethyl-3-(4-{5-[(7S)-7-methyl-7-[(2R)-2-methylpyrrolidin-1-yl]-6,7,8,9-tetrahydro-5H-benzo[7]annulen-2-yl]-1H-pyrazolo[3,4-b]pyridin-3-yl}phenyl)pyrazine], the IC50 in test [1] and in test [2] was less than 100 nM each time.
In the case of `Cc1cnc(C)c(-c2ccc(-c3n[nH]c4ncc(-c5ccc6c(c5)CC[C@@H](N5C7COCC5C7)CC6)cc34)cc2)n1` [Example 65, 6-[(7S)-2-{3-[4-(3,6-Dimethylpyrazin-2-yl)phenyl]-1H-pyrazolo[3,4-b]pyridin-5-yl}-6,7,8,9-tetrahydro-5H-benzo[7]annulen-7-yl]-3-oxa-6-azabicyclo[3.1.1]heptane], the IC50 in test [1] and in test [2] was less than 100 nM throughout.
